Measured values reported in EPA's CvTdb concentration-time database.

Tests used:
Rat [1] = assay: concentration in adipose after dosing; conditions: 144 h; dosed: Tamoxifen citrate; 300 ug/mL; oral; Female; F344
Rat [2] = assay: concentration in liver after dosing; conditions: 144 h; dosed: Tamoxifen; 300 ug/mL; oral; Female; F344
Rat [3] = assay: concentration in liver after dosing; conditions: 144 h; dosed: Tamoxifen citrate; 300 ug/mL; oral; Female; F344
Rat [4] = assay: concentration in liver after dosing; conditions: 72 h; dosed: Tamoxifen citrate; 100 ug/mL; oral; Female; F344
Rat [5] = assay: concentration in plasma after dosing; conditions: dosed: Tamoxifen, 300 ug/mL, oral, Female, F344
Rat [6] = assay: concentration in adipose after dosing; conditions: 144 h; dosed: Tamoxifen; 300 ug/mL; oral; Female; F344
Rat [7] = assay: concentration in plasma after dosing; conditions: dosed: Tamoxifen, 300 ug/mL, oral, Female, F344; remark: listed apart in the source
Rat [8] = assay: concentration in plasma after dosing; conditions: dosed: Tamoxifen citrate, 300 ug/mL, oral, Female, F344
Rat [9] = assay: concentration in adipose after dosing; conditions: 144 h; dosed: Tamoxifen; 300 ug/mL; oral; Female; F344; remark: listed apart in the source
Rat [10] = assay: concentration in adipose after dosing; conditions: 72 h; dosed: Tamoxifen citrate; 300 ug/mL; oral; Female; F344
Rat [11] = assay: concentration in adipose after dosing; conditions: 72 h; dosed: Tamoxifen citrate; 100 ug/mL; oral; Female; F344
Rat [12] = assay: concentration in liver after dosing; conditions: 72 h; dosed: Tamoxifen; 300 ug/mL; oral; Female; F344
Rat [13] = assay: concentration in liver after dosing; conditions: 72 h; dosed: Tamoxifen; 300 ug/mL; oral; Female; F344; remark: listed apart in the source
Rat [14] = assay: concentration in adipose after dosing; conditions: 72 h; dosed: Tamoxifen citrate; 300 ug/mL; oral; Female; F344; remark: listed apart in the source
Rat [15] = assay: concentration in liver after dosing; conditions: 144 h; dosed: Tamoxifen citrate; 100 ug/mL; oral; Female; F344
Rat [16] = assay: concentration in adipose after dosing; conditions: 144 h; dosed: Tamoxifen; 300 ug/mL; oral; Female; F344; remark: listed apart in the source
Rat [17] = assay: concentration in adipose after dosing; conditions: 144 h; dosed: Tamoxifen citrate; 100 ug/mL; oral; Female; F344
Rat [18] = assay: concentration in adipose after dosing; conditions: 72 h; dosed: Tamoxifen citrate; 100 ug/mL; oral; Female; F344; remark: listed apart in the source
Rat [19] = assay: concentration in liver after dosing; conditions: 144 h; dosed: Tamoxifen; 300 ug/mL; oral; Female; F344; remark: listed apart in the source
Rat [20] = assay: concentration in liver after dosing; conditions: 144 h; dosed: Tamoxifen; 300 ug/mL; oral; Female; F344; remark: listed apart in the source
Rat [21] = assay: concentration in plasma after dosing; conditions: 300 ug/mL, oral, Female, F344
Rat [22] = assay: concentration in adipose after dosing; conditions: oral, Female, F344
Rat [23] = assay: concentration in adipose after dosing; conditions: 72 h; dosed: Tamoxifen; 300 ug/mL; oral; Female; F344
Rat [24] = assay: concentration in liver after dosing; conditions: 144 h; dosed: Tamoxifen; 300 ug/mL; oral; Female; F344; remark: listed apart in the source
Rat [25] = assay: concentration in adipose after dosing; conditions: 144 h; dosed: Tamoxifen citrate; 300 ug/mL; oral; Female; F344; remark: listed apart in the source
Rat [26] = assay: concentration in plasma after dosing; conditions: dosed: Tamoxifen, 300 ug/mL, oral, Female, F344; remark: listed apart in the source
Rat [27] = assay: concentration in liver after dosing; conditions: 144 h; dosed: Tamoxifen citrate; 100 ug/mL; oral; Female; F344; remark: listed apart in the source
Rat [28] = assay: concentration in adipose after dosing; conditions: 72 h; dosed: Tamoxifen; 300 ug/mL; oral; Female; F344; remark: listed apart in the source
Rat [29] = assay: concentration in liver after dosing; conditions: 72 h; dosed: Tamoxifen citrate; 300 ug/mL; oral; Female; F344
Rat [30] = assay: concentration in liver after dosing; conditions: 72 h; dosed: Tamoxifen citrate; 300 ug/mL; oral; Female; F344; remark: listed apart in the source
Rat [31] = assay: concentration in liver after dosing; conditions: 144 h; dosed: Tamoxifen citrate; 300 ug/mL; oral; Female; F344; remark: listed apart in the source
Rat [32] = assay: concentration in liver after dosing; conditions: 144 h; dosed: Tamoxifen; 300 ug/mL; oral; Female; F344; remark: listed apart in the source
Rat [33] = assay: concentration in adipose after dosing; conditions: 144 h; dosed: Tamoxifen citrate; 300 ug/mL; oral; Female; F344; remark: listed apart in the source
Rat [34] = assay: concentration in liver after dosing; conditions: oral, Female, F344
Rat [35] = assay: concentration in adipose after dosing; conditions: 144 h; dosed: Tamoxifen citrate; 300 ug/mL; oral; Female; F344; remark: listed apart in the source
Rat [36] = assay: concentration in liver after dosing; conditions: 72 h; dosed: Tamoxifen citrate; 100 ug/mL; oral; Female; F344; remark: listed apart in the source
Rat [37] = assay: concentration in adipose after dosing; conditions: 144 h; dosed: Tamoxifen; 300 ug/mL; oral; Female; F344; remark: listed apart in the source
Rat [38] = assay: concentration in adipose after dosing; conditions: 144 h; dosed: Tamoxifen citrate; 300 ug/mL; oral; Female; F344; remark: listed apart in the source
Rat [39] = assay: concentration in plasma after dosing; conditions: dosed: Tamoxifen citrate, 300 ug/mL, oral, Female, F344; remark: listed apart in the source
Rat [40] = assay: concentration in adipose after dosing; conditions: 144 h; dosed: Tamoxifen; 300 ug/mL; oral; Female; F344; remark: listed apart in the source
Rat [41] = assay: concentration in liver after dosing; conditions: 144 h; dosed: Tamoxifen citrate; 300 ug/mL; oral; Female; F344; remark: listed apart in the source
Rat [42] = assay: concentration in liver after dosing; conditions: 144 h; dosed: Tamoxifen citrate; 300 ug/mL; oral; Female; F344; remark: listed apart in the source
Rat [43] = assay: concentration in liver after dosing; conditions: 144 h; dosed: Tamoxifen citrate; 300 ug/mL; oral; Female; F344; remark: listed apart in the source
Rat [44] = assay: concentration in plasma after dosing; conditions: dosed: Tamoxifen citrate, 300 ug/mL, oral, Female, F344; remark: listed apart in the source
[45] = 72 h, dosed: Tamoxifen citrate, 100 ug/mL
[46] = 72 h, dosed: Tamoxifen citrate, 300 ug/mL
[47] = 72 h, dosed: Tamoxifen, 300 ug/mL
[48] = 144 h, dosed: Tamoxifen citrate, 100 ug/mL
[49] = 144 h, dosed: Tamoxifen citrate, 300 ug/mL
[50] = 144 h, dosed: Tamoxifen, 300 ug/mL

CC/C(=C(\c1ccccc1)c1ccc(OCCN(C)C)cc1)c1ccccc1 [Tamoxifen]
concentration in adipose (Rat [1]): 44.5 ng/mL
concentration in liver (Rat [2]): 58.4 ng/g
concentration in liver (Rat [3]): 58.4 ng/g
concentration in liver (Rat [4]): 5.85 ng/g
concentration in plasma (Rat [5]; 0.25 h): 15.4 ng/mL
concentration in plasma (Rat [5]; 0.5 h): 12.2 ng/mL
concentration in plasma (Rat [5]; 1 h): 9.33 ng/mL
concentration in plasma (Rat [5]; 2 h): 8.41 ng/mL
concentration in plasma (Rat [5]; 4 h): 4.44 ng/mL
concentration in adipose (Rat [6]): 30.4 ng/mL
concentration in plasma (Rat [7]; 0.25 h): 21.9 ng/mL
concentration in plasma (Rat [7]; 0.5 h): 10.2 ng/mL
concentration in plasma (Rat [7]; 2 h): 6.23 ng/mL
concentration in plasma (Rat [7]; 4 h): 4.51 ng/mL
concentration in plasma (Rat [7]; 12 h): 2.66 ng/mL
concentration in plasma (Rat [8]; 0.25 h): 15.4 ng/mL
concentration in plasma (Rat [8]; 0.5 h): 12.2 ng/mL
concentration in plasma (Rat [8]; 1 h): 9.33 ng/mL
concentration in plasma (Rat [8]; 2 h): 8.41 ng/mL
concentration in plasma (Rat [8]; 4 h): 4.44 ng/mL
concentration in adipose (Rat [9]): 151 ng/mL
concentration in adipose (Rat [10]): 31.2 ng/mL
concentration in adipose (Rat [11]): 14.8 ng/mL
concentration in liver (Rat [12]): 30.5 ng/g
concentration in liver (Rat [13]): 21.1 ng/g
concentration in adipose (Rat [14]): 27.4 ng/mL
concentration in liver (Rat [15]): 16.3 ng/g
concentration in adipose (Rat [16]): 44.5 ng/mL
concentration in adipose (Rat [17]): 10.4 ng/mL
concentration in adipose (Rat [18]): 5.58 ng/mL
concentration in liver (Rat [19]): 22.8 ng/g
concentration in liver (Rat [20]): 25.3 ng/g
concentration in plasma (Rat [21]; 0 h, dosed: Tamoxifen citrate): 2.13 ng/mL
concentration in plasma (Rat [21]; 0 h, dosed: Tamoxifen): 2.13 ng/mL
concentration in plasma (Rat [21]; 0.25 h, dosed: Tamoxifen citrate): 3.18 ng/mL
concentration in plasma (Rat [21]; 0.25 h, dosed: Tamoxifen): 3.18 ng/mL
concentration in plasma (Rat [21]; 0.5 h, dosed: Tamoxifen citrate): 2.95 ng/mL
concentration in plasma (Rat [21]; 0.5 h, dosed: Tamoxifen): 2.95 ng/mL
concentration in plasma (Rat [21]; 1 h, dosed: Tamoxifen citrate): 2.9 ng/mL
concentration in plasma (Rat [21]; 1 h, dosed: Tamoxifen): 2.9 ng/mL
concentration in plasma (Rat [21]; 2 h, dosed: Tamoxifen citrate): 4.38 ng/mL
concentration in plasma (Rat [21]; 2 h, dosed: Tamoxifen): 4.38 ng/mL
concentration in plasma (Rat [21]; 4 h, dosed: Tamoxifen citrate): 4.12 ng/mL
concentration in plasma (Rat [21]; 4 h, dosed: Tamoxifen): 4.12 ng/mL
concentration in plasma (Rat [21]; 8 h, dosed: Tamoxifen citrate): 4.6 ng/mL
concentration in plasma (Rat [21]; 8 h, dosed: Tamoxifen): 4.6 ng/mL
concentration in plasma (Rat [21]; 16 h, dosed: Tamoxifen citrate): 2.42 ng/mL
concentration in plasma (Rat [21]; 16 h, dosed: Tamoxifen): 2.42 ng/mL
concentration in adipose (Rat [22]; [45]): 7.52 ng/mL
concentration in adipose (Rat [22]; [46]): 33.6 ng/mL
concentration in adipose (Rat [22]; [47]): 33.6 ng/mL
concentration in adipose (Rat [22]; [48]): 9.5 ng/mL
concentration in adipose (Rat [22]; [49]): 31.5 ng/mL
concentration in adipose (Rat [22]; [50]): 31.5 ng/mL
concentration in adipose (Rat [23]): 31.2 ng/mL
concentration in liver (Rat [24]): 239 ng/g
concentration in adipose (Rat [25]): 151 ng/mL
concentration in plasma (Rat [26]; 0.25 h): 11.9 ng/mL
concentration in plasma (Rat [26]; 0.5 h): 8.96 ng/mL
concentration in plasma (Rat [26]; 1 h): 7.35 ng/mL
concentration in plasma (Rat [26]; 2 h): 5.81 ng/mL
concentration in liver (Rat [27]): 13.9 ng/g
concentration in adipose (Rat [28]): 27.4 ng/mL
concentration in liver (Rat [29]): 21.1 ng/g
concentration in liver (Rat [30]): 30.5 ng/g
concentration in liver (Rat [31]): 239 ng/g
concentration in liver (Rat [32]): 37.2 ng/g
concentration in adipose (Rat [33]): 40.1 ng/mL
concentration in liver (Rat [34]; [45]): 7.61 ng/g
concentration in liver (Rat [34]; [46]): 39.5 ng/g
concentration in liver (Rat [34]; [47]): 39.5 ng/g
concentration in liver (Rat [34]; [48]): 13.4 ng/g
concentration in liver (Rat [34]; [49]): 48.3 ng/g
concentration in liver (Rat [34]; [50]): 48.3 ng/g
concentration in adipose (Rat [35]): 30.4 ng/mL
concentration in liver (Rat [36]): 13 ng/g
concentration in adipose (Rat [37]): 40.1 ng/mL
concentration in adipose (Rat [38]): 55.7 ng/mL
concentration in plasma (Rat [39]; 0.25 h): 21.9 ng/mL
concentration in plasma (Rat [39]; 0.5 h): 10.2 ng/mL
concentration in plasma (Rat [39]; 2 h): 6.23 ng/mL
concentration in plasma (Rat [39]; 4 h): 4.51 ng/mL
concentration in plasma (Rat [39]; 12 h): 2.66 ng/mL
concentration in adipose (Rat [40]): 55.7 ng/mL
concentration in liver (Rat [41]): 37.2 ng/g
concentration in liver (Rat [42]): 22.8 ng/g
concentration in liver (Rat [43]): 25.3 ng/g
concentration in plasma (Rat [44]; 0.25 h): 11.9 ng/mL
concentration in plasma (Rat [44]; 0.5 h): 8.96 ng/mL
concentration in plasma (Rat [44]; 1 h): 7.35 ng/mL
concentration in plasma (Rat [44]; 2 h): 5.81 ng/mL
